Assay results as given in patent publication US12419307B2, “Mixtures comprising indazole pesticides” (FMC Corporation, priority 2019, dated 2025).

Key:
Format in all cases: in vivo
[1] = system: silverleaf whitefly (Bemisia argentifolii Bellows and Perring); assay: Test A: silverleaf whitefly control on cotton or soybean plants, spray, insect mortality after 13 days; conditions: Bemisia argentifolii, read-out: % Mortality (obs)
Protocol: (§1) The pest control protection afforded by the mixtures or compositions is not limited, however, to these species. The analysis of enhanced activity between the mixtures or compositions was determined using Colby's equation. The average % mortality data for the test compounds alone were inserted into the Colby's equation. If the observed (obs) average % mortality was higher than “p”, the expected (exp) % mortality, the mixture or composition had enhanced effects. If the observed average % mortality was equal to or lower than the expected mortality, the mixture or composition either had no enhanced effect. For bioassays where insect feeding damage was evaluated, enhanced activity is identified when the observed plant damage is less than the expected plant damage rating; ratings ranged between 0 (no damage) and 10 (dead plant) and each value was converted to a % plant protection. 100−(Obs Plant Damage*10)
For evaluating control of silverleaf whitefly (Bemisia argentifolii Bellows and Perring) through contact and/or systemic means, each test unit consisted of a small open container with a 12- to 14-day-old cotton plant or 5-7 day old soybean plant inside. This was pre-infested by placing test units into cages containing adult whiteflies so that oviposition on the cotton leaves could occur. The adults were removed from the plants with an air-blast nozzle, and the test units were capped. The test units were then stored 2 to 3 days before spraying.
Test compounds were formulated using a solution containing 10% acetone, 90% water and 300 ppm Activator 90@ Spreader Lo-Foam Formula non-ionic surfactant containing alkylarylpolyoxyethylene, free fatty acids, glycols and 2-propanol (Loveland Industries, Inc.) to provide the desired concentration in ppm. Formulated test solutions were then applied in 1 mL volumes through a SUJ2 atomizer nozzle with ⅛ JJ custom body (Spraying Systems Co.) positioned 1.27 cm (0.5 inches) above the top of each test unit.
The results for all experimental compositions in this test were replicated three times. After spraying of the formulated test composition, each test unit was allowed to dry for 1 hour and the cap removed. The test units were held for 13 days in a growth chamber at 28° C. and 50-70% relative humidity.

[2] = system: Western Flower Thrips (Frankliniella occidentalis Pergande); assay: Test B: Western Flower Thrips control on bean plants, plant damage rating converted to % plant protection after 7 days; conditions: for Plant Damage (obs): Table 3a, applied alone
Protocol: as §1
Thus, a plant given a plant damage rating of 3 out of 10 is equivalent to 70% plant protection In all of these tests, compounds of Formula I are Compounds 1 (Cpd 1), 2 (Cpd2), and 3 (Cpd3) and compounds of Formula II are compounds 4 (Cpd4) and 5 (Cpd 5).
For evaluating control of the Western Flower Thrips (Frankliniella occidentalis Pergande) through contact and/or systemic means, each test unit consisted of a small open container with a 5- to 7-day-old bean (var. Soleil) plant inside.
Test solutions were formulated and sprayed with 3 replications as described for Test A. After spraying, the test units were allowed to dry for 1 hour, 22 to 27 adult thrips were added to each unit and then a black, screened cap was placed on top. The test units were held for 7 days at 25° C. and 45-55% relative humidity. To evaluate the level of plant protection provided by each treatment, each test unit was then visually assessed for plant damage inflicted by insect feeding and rated 0-10, where 0=undamaged and 10=plant is dead; the results are listed in Tables 3a-g.

[3] = system: Potato Leafhopper (Empoasca fabae Harris); assay: Test C: Potato Leafhopper control on bean plants, insect mortality after 6 days; conditions: read-out: % Mortality (obs)
Protocol: as §1
For evaluating control of Potato Leafhopper (Empoasca fabae Harris) through contact and/or systemic means, each test unit consisted of a small open container with a 5- to 6-day-old Longio bean plant (primary leaves emerged) inside. White sand was added to the top of the soil, and one of the primary leaves was excised prior to application. Test compounds were formulated and sprayed with 3 replications as described for Test A. After spraying, the test units were allowed to dry for 1 hour before they were infested with 5 potato leafhoppers (18- to 21-day-old adults). A black, screened cap was placed on the top of each container. The test units were held for 6 days in a growth chamber at 19-21° C. and 50-70% relative humidity.

[4] = system: cotton melon aphid (Aphis gossypii Glover); assay: Test D: cotton melon aphid control on okra plants, insect mortality after 6 days; conditions: Aphis gossypii, read-out: % Mortality (obs)
Protocol: The analysis of enhanced activity between the mixtures or compositions was determined using Colby's equation. The average % mortality data for the test compounds alone were inserted into the Colby's equation. If the observed (obs) average % mortality was higher than “p”, the expected (exp) % mortality, the mixture or composition had enhanced effects. If the observed average % mortality was equal to or lower than the expected mortality, the mixture or composition either had no enhanced effect. For bioassays where insect feeding damage was evaluated, enhanced activity is identified when the observed plant damage is less than the expected plant damage rating; ratings ranged between 0 (no damage) and 10 (dead plant) and each value was converted to a % plant protection. 100−(Obs Plant Damage*10)
For evaluating control of cotton melon aphid (Aphis gossypii Glover) through contact and/or systemic means, each test unit consisted of a small open container with a 6- to 7-day-old okra plant inside. This was pre-infested by placing on a leaf of the test plant 30 to 40 aphids on a piece of leaf excised from a culture plant (cut-leaf method). The […] moved onto the test plant as the leaf piece desiccated. After pre-infestation, the soil of the test unit was covered with a layer of sand.
Test compounds were formulated and sprayed as described for Test A. The applications were replicated three times. After spraying of the formulated test compounds, each test unit was allowed to dry for 1 hour and then a black, screened cap was placed on top. […]

[5] = system: diamondback moth (Plutella xylostella L.); assay: Test E: diamondback moth control on mustard plants, contact and/or systemic, plant damage rating after 6 days
Protocol: as §1
For evaluating control of diamondback moth (Plutella xylostella L.) through contact and/or systemic means, each test unit consisted of a small open container with a 10- to 12-day-old mustard plant inside. Test compounds were formulated and sprayed with 3 replications as described for Test A. After spraying, the test units were allowed to dry for 1 hour before they were infested with 30-50 neonate larvae. A black, screened cap was placed on the top of each container. The test units were held for 6 days in a growth chamber at 24-25° C. and 70% relative humidity. Each test unit was then visually assessed for plant damage and rated 0-10, where 0=undamaged and 10=plant is dead; the results are listed in Tables 6a-b.

Row | SMILES | mortality at 3 ppm [1] [%] | mortality at 5.5 ppm [1] [%] | Plant Damage (obs) ([2]; 0.08 ppm) [%] | Plant Damage (obs) ([2]; 0.28 ppm) [%] | mortality at 1.75 ppm [3] [%] | mortality at 3.3 ppm [3] [%] | mortality at 0.06 ppm [4] [%] | mortality at 0.12 ppm [4] [%] | Plant Protection (obs) ([5]; Table 6a, 0.013 ppm) | Plant Protection (obs) ([5]; Table 6a, 0.02 ppm) | mortality at 50 ppm [1] [%] | mortality at 250 ppm [1] [%] | pest or weed control at 100 ppm ([2]; Frankliniella occidentalis, 168 h, Table 3d, 100 ppm, read-out: Plant Protection (obs)) [%] | pest or weed control at 250 ppm ([2]; Frankliniella occidentalis, 168 h, Table 3d, 250 ppm, read-out: Plant Protection (obs)) [%] | mortality at 50 ppm [3] [%] | mortality at 250 ppm [3] [%] | mortality at 0.25 ppm ([4]; 120 h) [%] | mortality at 0.85 ppm ([4]; 120 h) [%] | Plant Protection (obs) ([5]; Table 6b, 83.2 ppm) | Plant Protection (obs) ([5]; Table 6b, 150 ppm)
1 | CNC(=O)c1cc(C#N)cc(C)c1NC(=O)c1cc(Br)nn1-c1ncccc1Cl [Cyantraniliprole, 3-bromo-1-(3-chloro-2-pyridinyl)-N-[4-cyano-2-methyl-6-[(methylamino)carbonyl]phenyl]-1H-pyrazole-5-carboxamide, reference compound] | 29.1 | 61.1 | 6.7 | 43.3 | 13.3 | 28.6 | 21.1 | 45.1 | 73.3 | 20.0 |  |  |  |  |  |  |  |  |  | 
2 | CCOC(=O)OC1=C(c2cc(C)ccc2C)C(=O)N[C@]12CC[C@@H](OC)CC2 [Spirotetramat, spirotetramat, reference compound] |  |  |  |  |  |  |  |  |  |  | 2.1 | 34.4 | 53.3 | 73.3 | 28.6 | 73.3 | 21.1 | 45.1 | 73.3 | 80.0
